The results in this text go back to article PMC10600881 (ACS Omega, 2023).

Converted amounts (≈) assume the structure as drawn. Like-named read-outs stand apart in the source and are kept apart here.

Experiment [1] deals with E. coli (ATCC25922). Description: Broth microdilution assay, MIC. In kind it is cell-based. The note with it: Escherichia coli, ATCC25922, read-out: Minimum Inhibitory Concentration.
Experiment [2] relates to P. aeruginosa (ATCC 29853). Description: Broth microdilution assay, MIC/MBC. Type of experiment: cell-based. The following applies: for ratio (MBC/MIC): P. aeruginosa (ATCC 29853); for MBC / MIC: Pseudomonas aeruginosa; for fold more efficient than amoxicillin / bactericidal or bacteriostatic effect: P. aeruginosa; for fold more efficient than amoxicillin: from MICs; for bactericidal or bacteriostatic effect: MBC/MIC ≤ 4 = bactericidal.

For experiment [3], the system named is S. aureus (ATCC 25923). Briefly: Broth microdilution assay, MIC. Type of experiment: cell-based. The note with it: Staphylococcus aureus, ATCC25923, read-out: Minimum Inhibitory Concentration. A general note: In broth dilution the organism is exposed to a series of concentrations in liquid medium.
Experiment [4] concerns B. subtilis (ATCC 9372). Briefly: Broth microdilution assay, MIC. The following applies: Bacillus subtilis, ATCC9372, read-out: Minimum Inhibitory Concentration. Type of experiment: cell-based.
Experiment [5] has as its system C. albicans (ATCC 10231). Description: Broth microdilution assay, antifungal MIC/MFC. Type of experiment: cell-based, Candida albicans. The following applies: for ratio (MFC/MIC): C. albicans (ATCC 10231); for MFC / MIC: Candida albicans; for fungicidal or fungistatic behavior: C. albicans, MFC/MIC > 4 = fungistatic.
The subject of experiment [6] is M. tuberculosis (RCMB 010126). Briefly: Microplate alamar blue assay. In kind it is cell-based, Mycobacterium tuberculosis. The note with it: Mycobacterium tuberculosis, RCMB010126, sensitive Mycobacterium tuberculosis (RCMB 010126), MABA. For orientation: The colour change of resazurin is a common sign of viable cells or microbes.
Where [7] appears, read: ATCC29853, read-out: Minimum Inhibitory Concentration.
The mark [8] stands for this setting: ATCC10231, read-out: Minimum Inhibitory Concentration.

In the case of `COc1ccc(OC)c(C2CC(c3cccs3)=NN2C(N)=S)c1` (centres unmarked) [2b, 4,5-Dihydro-5-(2,5-dimethoxyphenyl)-3-(thiophen-2-yl)pyrazole-1-carbothioamide], the MIC was found to be 62.5 mg/L (≈ 180 µM) in experiment [1]; 62.2 mg/L (≈ 179 µM) in experiment [2] (ATCC29853); 62.2 mg/L (≈ 179 µM) in experiment [2] (setting [7]); 250 mg/L (≈ 719 µM) in experiment [3]; 125 mg/L (≈ 360 µM) in experiment [4]; 62.5 mg/L (≈ 180 µM) in experiment [5] (ATCC10231). The MIC in experiment [5] (setting [8]) was determined as 62.5 mg/L (≈ 180 µM); in experiment [6] it was 15.6 mg/L (≈ 44.9 µM). The “ratio (MBC/MIC)” value in experiment [2] was 8. Also, the MBC in experiment [2] (ATCC29853) turned out to be 500 mg/L (≈ 1440 µM). In experiment [5], the “ratio (MFC/MIC)” value is reported as 4. Moreover, the MFC in experiment [5] (ATCC10231) came out at 250 mg/L (≈ 719 µM).

As for `Cc1csc(N2N=C(c3cccs3)CC2c2cccs2)n1` (centres unmarked) [3a, 4,5-Dihydro-1-(4-methylthiazol-2-yl)-3,5-di(thiophen-2-yl)-1H-pyrazole], the MIC was 500 mg/L (≈ 1510 µM) in experiment [1]; more than 500 mg/L in experiment [2] (ATCC29853); more than 500 mg/L in experiment [2] (setting [7]); 250 mg/L (≈ 754 µM) in experiment [3]; 62.5 mg/L (≈ 189 µM) in experiment [4]; 125 mg/L (≈ 377 µM) in experiment [5] (ATCC10231). The values for the MIC in experiment [5] (setting [8]) and in experiment [6] were 125 mg/L (≈ 377 µM) and 62.5 mg/L (≈ 189 µM), respectively. The “ratio (MBC/MIC)” value in experiment [2] is more than 1. The same compound gave a minimal bactericidal concentration (MBC) in experiment [2] (ATCC29853) of more than 500 mg/L. The “ratio (MFC/MIC)” value in experiment [5] is reported as more than 4. The “fungicidal or fungistatic behavior” value in experiment [5] is on record as “fungistatic”. Also, the minimum fungicidal concentration (MFC) in experiment [5] (ATCC10231) was more than 500 mg/L.

Turning to `COc1ccc(OC)c(C2CC(c3cccs3)=NN2c2nc(C)cs2)c1` (centres unmarked) [3b, 4,5-Dihydro-5-(2,5-dimethoxyphenyl)-1-(4-methylthiazol-2-yl)-3-(thiophen-2-yl)-1H-pyrazole], the MIC in experiment [1] worked out at 125 mg/L (≈ 324 µM); in experiment [2] (ATCC29853) it was 15.6 mg/L (≈ 40.5 µM); in experiment [2] (setting [7]), 15.6 mg/L (≈ 40.5 µM); in experiment [3], 250 mg/L (≈ 648 µM); in experiment [4] it was 125 mg/L (≈ 324 µM); in experiment [5] (ATCC10231), 31.2 mg/L (≈ 81.1 µM). The MIC in experiment [5] (setting [8]) was 31.2 mg/L (≈ 81.1 µM); in experiment [6], 7.81 mg/L (≈ 20.3 µM). Besides, in experiment [2], the “ratio (MBC/MIC)” value is recorded as 8. In addition, in experiment [2], the “fold more efficient than amoxicillin” value was “approximately 32 fold”. For the same compound, the MBC in experiment [2] (ATCC29853) is 125 mg/L (≈ 324 µM). For the same compound, the “ratio (MFC/MIC)” value in experiment [5] is 8. The “fungicidal or fungistatic behavior” value in experiment [5] is given as “fungistatic”. This compound also displayed an MFC in experiment [5] (ATCC10231) of 250 mg/L (≈ 648 µM).

With `c1ccc(-c2csc(N3N=C(c4cccs4)CC3c3cccs3)n2)cc1` (centres unmarked) [4a, 4,5-Dihydro-1-(4-phenylthiazol-2-yl)-3,5-di(thiophen-2-yl)-1H-pyrazole], the MIC came to 125 mg/L (≈ 318 µM) in experiment [1]; 125 mg/L (≈ 318 µM) in experiment [2] (ATCC29853); 125 mg/L (≈ 318 µM) in experiment [2] (setting [7]); 250 mg/L (≈ 635 µM) in experiment [3]; 15.6 mg/L (≈ 39.7 µM) in experiment [4]; 125 mg/L (≈ 318 µM) in experiment [5] (ATCC10231). Moreover, the MIC in experiment [5] (setting [8]) was determined as 125 mg/L (≈ 318 µM); in experiment [6] it was 62.5 mg/L (≈ 159 µM). Also, in experiment [2], the “ratio (MBC/MIC)” value stood at 4. In addition, in experiment [2], the “bactericidal or bacteriostatic effect” value is recorded as “bactericidal”. Further, in experiment [2] (ATCC29853), the minimum bactericidal concentration (MBC) turned out to be 500 mg/L (≈ 1270 µM). Also, in experiment [5], the “ratio (MFC/MIC)” value was found to be 4. For the same compound, the MFC in experiment [5] (ATCC10231) was determined as 500 mg/L (≈ 1270 µM).

For `COc1ccc(OC)c(C2CC(c3cccs3)=NN2c2nc(-c3ccccc3)cs2)c1` (centres unmarked) [4b, 4,5-Dihydro-5-(2,5-dimethoxyphenyl)-1-(4-phenylthiazol-2-yl)-3-(thiophen-2-yl)-1H-pyrazole], the MIC in experiment [1] was found to be 125 mg/L (≈ 279 µM); in experiment [2] (ATCC29853), 15.6 mg/L (≈ 34.9 µM); in experiment [2] (setting [7]), 15.6 mg/L (≈ 34.9 µM); in experiment [3] it was 250 mg/L (≈ 559 µM); in experiment [4], 250 mg/L (≈ 559 µM); in experiment [5] (ATCC10231) it was 62.5 mg/L (≈ 140 µM). Further, the MIC worked out at 62.5 mg/L (≈ 140 µM) in experiment [5] (setting [8]) and 31.2 mg/L (≈ 69.8 µM) in experiment [6]. Moreover, the “ratio (MBC/MIC)” value in experiment [2] came to 16. In addition, the “fold more efficient than amoxicillin” value in experiment [2] is recorded as “approximately 32 fold”. Also, the MBC in experiment [2] (ATCC29853) came out at 250 mg/L (≈ 559 µM). For the same compound, the “ratio (MFC/MIC)” value in experiment [5] is listed as 8. Also, in experiment [5], the “fungicidal or fungistatic behavior” value is on record as “fungistatic”. Moreover, the MFC in experiment [5] (ATCC10231) stood at 500 mg/L (≈ 1120 µM).

With `CCOC(=O)c1sc(N2N=C(c3cccs3)CC2c2cccs2)nc1C` (centres unmarked) [5a, Ethyl 2-(4,5-dihydro-3,5-di(thiophen-2-yl)pyrazol-1-yl)-4-methylthiazole-5-carboxylate], the MIC in experiment [1] was more than 500 mg/L; in experiment [2] (ATCC29853) it was more than 500 mg/L; in experiment [2] (setting [7]) it was more than 500 mg/L; in experiment [3], 62.5 mg/L (≈ 155 µM); in experiment [4] it was 3.9 mg/L (≈ 9.66 µM); in experiment [5] (ATCC10231) it was 125 mg/L (≈ 310 µM). For the same compound, the MIC is 125 mg/L (≈ 310 µM) in experiment [5] (setting [8]) and 31.2 mg/L (≈ 77.4 µM) in experiment [6]. Besides, in experiment [2], the “ratio (MBC/MIC)” value is more than 1. Besides, the MBC in experiment [2] (ATCC29853) was more than 500 mg/L. Also, in experiment [5], the “ratio (MFC/MIC)” value was found to be 4. This compound yielded an MFC in experiment [5] (ATCC10231) of 500 mg/L (≈ 1240 µM).

For `CCOC(=O)c1sc(N2N=C(c3cccs3)CC2c2cc(OC)ccc2OC)nc1C` (centres unmarked) [5b, Ethyl 2-(4,5-dihydro-5-(2,5-dimethoxyphenyl)-3-(thiophen-2-yl)pyrazol-1-yl)-4-methylthiazole-5-carboxylate], the MIC in experiment [1] worked out at 125 mg/L (≈ 273 µM); in experiment [2] (ATCC29853), 31.2 mg/L (≈ 68.3 µM); in experiment [2] (setting [7]) it was 31.2 mg/L (≈ 68.3 µM); in experiment [3], 62.5 mg/L (≈ 137 µM); in experiment [4] it was 125 mg/L (≈ 273 µM); in experiment [5] (ATCC10231) it was 62.5 mg/L (≈ 137 µM). Also, the figures for the MIC in experiment [5] (setting [8]) and in experiment [6] were 62.5 mg/L (≈ 137 µM) and 31.2 mg/L (≈ 68.3 µM), respectively. For the same compound, the “ratio (MBC/MIC)” value in experiment [2] is recorded as 2. For the same compound, the “fold more efficient than amoxicillin” value in experiment [2] was approximately 16 fold. The “bactericidal or bacteriostatic effect” value in experiment [2] was “bactericidal”. In experiment [2] (ATCC29853), this compound gave an MBC of 62.2 mg/L (≈ 136 µM). Further, the “ratio (MFC/MIC)” value in experiment [5] is 2. This compound displayed an MFC in experiment [5] (ATCC10231) of 125 mg/L (≈ 273 µM).

In general, MBC refers to the smallest concentration meeting the test's criterion for killing. Lower therefore signals more potent killing. As usually defined, the MFC is the lowest tested concentration that kills the fungus rather than only halting it. Higher therefore signals less potent killing.
